The record followed here is patent publication US9051562B2, “Polypeptides isolated from brevibacterium aurantiacum and their use for the treatment of cancer” (Institut National de la Santé et de la Recherche Médicale …, priority 2011, dated 2015).

Assay [1] has as its target Brevibacterium aurantiacum (ATCC 9175; formerly B. linens) methionine gamma-lyase MGL-BL929, recombinant, SEQ ID NO: 1 (Brevibacterium aurantiacum, UniProt A0A2H1K3G9). Conditions: for activity of the enzyme towards the substrate (in words): 25 mM of substrate; for activity of the enzyme towards the substrate (in words) / Vmax: pH 7.5, 25° C., 10 min; for Vmax: 100 mM K*PO4, 0.01 mM PLP.

For assay [2], the system named is HT29MTX cells. Kind of assay: Growth inhibition of HT29MTX cells (Trypan blue dye exclusion), resistance to methotrexate. The assay is classed as cell-based, human. The note with it: 1 μM methotrexate. The text has this:
Seven human tumor cell lines were used to determine the cellular effects of MGL-BL929. These comprise five adherent solid tumor-derived cell lines (including the colorectal carcinoma cell line HT29, two stable variants of HT29 selected for their high levels of resistance to methotrexate (HT29MTX), and to fluorouracil (HT29FUra), the ovarian carcinoma cell line SKOV3, and the hepatoblastoma-derived cell line (HepG2), and 2 non-adherent tumor cell lines (including the T-cell lymphoma cell line Jurkat, and the acute lymphocytic leukemia cell line Reh). Similarly, human non-tumor skin fibroblasts (CDGII) were exposed to MGL-BL929 at various concentrations in order to explore selectivity of MGL-BL929 towards cancer cells.
The cells lines were thawed from mycoplasma-free frozen stocks and were controlled for contamination. Cells were maintained in cell culture medium (RPMI 1640 or DMEM according to the growth requirements of each cell line), supplemented with 10% FBS and antibiotics (streptomycin, 50 μg/mL, and penicillin, 50 U/mL) at 37° in an atmosphere containing 5% CO2. Cells were exposed in 12 well-cell plates to the purified recombinant MGL-BL929 at a concentration range from 0.05 U/mL to 5 U/mL, and were harvested 24 hr., 48 hr., 72 hr., and 96 hr. from start of the exposure. Cell viability was measured with the Trypan blue dye exclusion test in Malassez chambers.

Structures are written as SMILES.

On to `CSCC[C@@H](N)C(=O)O` [D-methionine], for which, in assay [1], the “activity of the enzyme towards the substrate (in words)” value (from here on “activity”) is listed as “no activity” and the Vmax is given as 0 μmol · min^−1 · m^−1.

For `N[C@@H](CCSC[C@H](N)C(=O)O)C(=O)O` [L-Cystathionine, L-cystathionine], in assay [1], the “activity” value is “no activity” and the Vmax was 0 μmol · min^−1 · m^−1.

`N[C@@H](CS)C(=O)O` [L-Cysteine, L-cysteine]: in assay [1], the “activity” value was “no activity” and the Vmax is listed as 0 μmol · min^−1 · m^−1. Turning to `N[C@@H](CCS)C(=O)O` [L-Homocysteine, L-homocysteine], the Vmax in assay [1] is recorded as 27.7 ± 5.7 μmol · min^−1 · m^−1. For the same compound, in assay [1] (L-homocysteine compared with L-methionine), the “Affinity relative to L-methionine (fold greater)” value is 7.3 fold. For the compound `CSCC[C@H](N)C(=O)O` [L-Methionine, L-methionine], in assay [1], the Vmax is reported as 5.77 ± 1.4 μmol · min^−1 · m^−1.

Take `Nc1ncnc2c1ncn2[C@@H]1O[C@H](CSCC[C@H](N)C(=O)O)[C@@H](O)[C@H]1O` [S-Adenosyl L-homocysteine]: in assay [1], the “activity” value is given as “no activity” and the Vmax is reported as 0 μmol · min^−1 · m^−1. Regarding `CN(Cc1cnc2nc(N)nc(N)c2n1)c1ccc(C(=O)N[C@@H](CCC(=O)O)C(=O)O)cc1` [methotrexate], the “resistance of the cells to methotrexate (in words)” value in assay [2] was “fully resistant”.
